We go through 36 compounds from patent US5834463A, “Condensed heterocyclic compounds, their production and use” (Takeda Chemical Industries, Ltd., priority 1994, dated 1998).

This test deals with T1, human GnRH receptor (Homo sapiens, UniProt P30968).
T1 construct: expressed in transfected cells; host or cells: CHO (Chinese Hamster Ovary) cells, membrane fraction
T1 sequence (P30968 1-328): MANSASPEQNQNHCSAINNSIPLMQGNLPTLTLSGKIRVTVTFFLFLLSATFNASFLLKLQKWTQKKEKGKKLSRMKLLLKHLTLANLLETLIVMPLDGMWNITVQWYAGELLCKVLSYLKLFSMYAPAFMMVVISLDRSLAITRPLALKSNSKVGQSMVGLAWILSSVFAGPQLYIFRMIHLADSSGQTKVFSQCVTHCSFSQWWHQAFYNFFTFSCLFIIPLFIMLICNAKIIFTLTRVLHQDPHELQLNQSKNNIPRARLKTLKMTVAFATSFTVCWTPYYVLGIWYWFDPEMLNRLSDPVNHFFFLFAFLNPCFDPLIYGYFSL
The experiment in a line: Test for inhibition of ^125 I-leuprorelin binding to human GnRH receptor. Particulars: membrane fraction of CHO cells expressing human GnRH receptors, 25° C., 60 minutes, read-out: Binding Inhibitory Activity (IC50, μM) for human GnRH receptor. The protocol:
(A) Preparation of ^125 I-leuprorelin
Ten μl of a 3×10^-4 M aqueous solution of leuprorelin and 10μl of 0.01 mg/ml lactoperoxidase in 0.1M Hepes buffer (pH7.4) were put in a tube, to which was added 10 μl of an Na^125 I solution (37 MBq). The mixture was stirred, to which was added 10 μl of 0.001% H2 O2, followed by allowing the reaction to proceed for 20 minutes at room temperature. To the reaction mixture was added 700 μl of a 0.05% TFA solution to stop the reaction. The product of was purified by means of a reverse-phase HPLC. Conditions of HPLC were as follows:
(D) Preparation of membrane fraction of CHO (Chinese Hamster Ovary) cells containing human GnRH receptors
CHO cells (10^9) expressing human GnRH receptors were suspended in a phosphate-buffered saline supplemented with 5 mM EDTA. The suspension was subjected to centrifugal separation for 5 minutes at 100×g. To the pellet of cells was added 10 ml of a homogenate buffer for cells (10 mM NaHCO3, 5 mM EDTA, pH 7.5), which was homogenated by using a Polytron homogenizer. Centrifugal separation was conducted for 15 minutes at 400×g. The supernatant was taken into an ultracentrifugal tube, which was subjected to centrifuge for one hour at 100,000×g to give precipitate of the membrane fraction. The precipitate was suspended in 2 ml of the assay buffer, which was centrifuged for one hour at 100,000×g. The membrane fraction recovered as precipitate was again suspended in 20 ml of the assay buffer, which was distributed to vials and stored at -80° C. until used.
(E) Determination of inhibitory rate of ^125 I-leuprorelin binding
In the cases of using rat and human pituitary membrane fractions prepared in (B) and (D), they were respectively diluted with the assay buffer to 200 μg/ml and 188 μl each was distributed to tubes. In the case of using bovine pituitary membrane fraction prepared in (C), it was diluted with the assay buffer to 750 μg/ml and 188 μl each was distributed into tubes. In the case where the membrane fraction of anterior lobes of rat pituitary gland was used, 2 μl of a 0.1 mM compound dissolved in 60% DMSO (dimethylsulfoxide) and 10 μl of 38 nM ^125 I-leuprorelin were added thereto simultaneously. In the case where the membrane fraction of anterior lobes of bovine pituitary gland and the membrane fraction derived from the CHO cells expressing human GnRH receptors were used, 2 μl of a 2 mM compound dissolved in 60% DMSO and 10 μl of 38 nM ^125 I-leuproprelin were added simultaneously. For determining the maximum binding amount, a solution for reaction supplemented with 2 μl of 60% DMSO and 10 μl of 38 nM ^125 I-leuprorelin was prepared. And, for determining the amount of non-specific binding, a solution for reaction supplemented with 2 μl of 100 μM leuprorelin dissolved in 60% DMSO and 10 μl of 38 nM ^125 I-leuprorelin were also prepared simultaneously.
In the cases where membrane fractions of anterior lobes of rat and bovine pituitary were used, reaction was allowed to proceed at 4° C. for 90 minutes, while in the case where the membrane fraction derived from the CHO cells expressing human GnRH receptor was used, reaction was allowed to proceed at 25° C. for 60 minutes. The reaction mixtures were respectively subjected to filtration under sucking with Whatman glass filter (GF-F) processed with polyethyleneimine. After completing the filtration, radioactivity of the ^125 I-leuprorelin remaining on the filter paper was measured with a γ-counter.
By calculation of (TB-SB)/(TB-NSB)×100 (SB: radioactivity obtained when a compound was added, TB: radioactivity for the maximum binding, NSB: radioactivity for the non-specific binding), the binding inhibitory rate of each test compound was determined. Besides, the inhibitory rates were determined by changing the concentrations of test compounds, and the concentration of a test compound inhibiting the specific binding by 50% (IC50 value) was calculated by way of Hill plot.
Usually IC50 stands for the concentration that gives 50% inhibition. As to `O=C1c2ccc([N+](=O)[O-])cc2C(=O)N1CC(=O)N1c2ccccc2N(Cc2ccccc2)C(=O)[C@H]2CCC[C@H]21` (relative stereo) [compound 49], the IC50 was found to be 2 µM.

As to `O=C1c2ccccc2C(=O)N1CCC(=O)N1c2ccccc2N(Cc2ccccc2)C(=O)[C@H]2CCC[C@H]21` (relative stereo) [compound 50], the 50% inhibitory concentration (IC50) is 24 µM. Take `O=C1c2ccccc2C(=O)N1CCCC(=O)N1c2ccccc2N(Cc2ccccc2)C(=O)[C@H]2CCC[C@H]21` (relative stereo) [compound 51]: the IC50 came out at 12 µM. Regarding `O=C1c2ccc(Cl)cc2C(=O)N1CC(=O)N1c2ccccc2N(Cc2ccccc2)C(=O)[C@H]2CCC[C@H]21` (relative stereo) [compound 69], the IC50 worked out at 2 µM.

With `O=C1c2ccc(F)cc2C(=O)N1CC(=O)N1c2ccccc2N(Cc2ccccc2)C(=O)[C@H]2CCC[C@H]21` (relative stereo) [compound 70], the IC50 was determined as 2 µM. With `Cc1ccc2c(c1)C(=O)N(CC(=O)N1c3ccccc3N(Cc3ccccc3)C(=O)[C@H]3CCC[C@H]31)C2=O` (relative stereo) [compound 71] the figure was 9 µM. Consider `O=C1c2cccc([N+](=O)[O-])c2C(=O)N1CC(=O)N1c2ccccc2N(Cc2ccccc2)C(=O)[C@H]2CCC[C@H]21` (relative stereo) [compound 72], for which the IC50 is 6 µM. Regarding `O=C1c2cccc(O)c2C(=O)N1CC(=O)N1c2ccccc2N(Cc2ccccc2)C(=O)[C@H]2CCC[C@H]21` (relative stereo) [compound 73], the half-maximal inhibitory concentration (IC50) amounted to 9 µM. With `O=C1c2cccc3cccc(c23)C(=O)N1CC(=O)N1c2ccccc2N(Cc2ccccc2)C(=O)[C@H]2CCC[C@H]21` (relative stereo) [compound 75], the IC50 was 3 µM.

Consider `O=C1Cc2ccccc2C(=O)N1CC(=O)N1c2ccccc2N(Cc2ccccc2)C(=O)[C@H]2CCC[C@H]21` (relative stereo) [compound 77], for which the 50% inhibitory concentration (IC50) stood at 5 µM. For `O=C1c2cccnc2C(=O)N1CC(=O)N1c2ccccc2N(Cc2ccccc2)C(=O)[C@H]2CCC[C@H]21` (relative stereo) [compound 78], the concentration for half-maximal inhibition (IC50) was determined as 5 µM. Then `O=C1[C@H]2CC=CC[C@H]2C(=O)N1CC(=O)N1c2ccccc2N(Cc2ccccc2)C(=O)[C@H]2CCC[C@H]21` (relative stereo) [compound 80], with 9 µM; and `COc1cc(OC)cc(C(=O)NCC(=O)N2c3ccccc3N(Cc3ccccc3)C(=O)[C@H]3CCC[C@H]32)c1` (relative stereo) [compound 87], with 16 µM. For the compound `Nc1cccc2c1C(=O)N(CC(=O)N1c3ccccc3N(Cc3ccccc3)C(=O)[C@H]3CCC[C@H]31)C2=O` (relative stereo) [compound 106], the IC50 worked out at 5 µM. For `COC(=O)c1ccc2c(c1)C(=O)N(CC(=O)N1c3ccccc3N(Cc3ccccc3)C(=O)[C@H]3CCC[C@H]31)C2=O` (relative stereo) [compound 108], the IC50 is 8 µM. `CC(=O)N(CC(=O)N1c2ccccc2N(Cc2ccccc2)C(=O)[C@H]2CCC[C@H]21)C(=O)c1ccccc1` (relative stereo) [compound 109]: the half-maximal inhibitory concentration (IC50) turned out to be 6 µM. `O=C1c2ccccc2C(=O)N1CC(=O)N1c2ccccc2N(Cc2cccc3ccccc23)C(=O)[C@H]2CCC[C@H]21` (relative stereo) [compound 113]: the IC50 was found to be 1 µM.

For the compound `O=C1c2ccccc2C(=O)N1CC(=O)N1c2ccccc2N(Cc2ccc3ccccc3c2)C(=O)[C@H]2CCC[C@H]21` (relative stereo) [compound 114], the IC50 amounted to 0.6 µM.

As for `O=C1c2ccccc2C(=O)N1CC(=O)N1c2ccccc2N(Cc2ccccn2)C(=O)[C@H]2CCC[C@H]21` (relative stereo) [compound 118], the IC50 was 2 µM.

As to `O=C1c2ccccc2C(=O)N1CC(=O)N1c2ccccc2N(Cc2cccnc2)C(=O)[C@H]2CCC[C@H]21` (relative stereo) [compound 119], the concentration for half-maximal inhibition (IC50) was 10 µM. As to `O=C1c2ccccc2C(=O)N1CC(=O)N1c2ccccc2N(Cc2ccncc2)C(=O)[C@H]2CCC[C@H]21` (relative stereo) [compound 120], the concentration for half-maximal inhibition (IC50) was 4 µM. With `O=C1c2ccncc2C(=O)N1CC(=O)N1c2ccccc2N(Cc2ccccc2)C(=O)[C@H]2CCC[C@H]21` (relative stereo) [compound 128], the IC50 was 15 µM. Turning to `O=C1Cc2ccccc2N1CC(=O)N1c2ccccc2N(Cc2ccccc2)C(=O)[C@H]2CCC[C@H]21` (relative stereo) [compound 136], the half-maximal inhibitory concentration (IC50) was determined as 15 µM. Consider `O=C1[C@H]2CCC[C@H]2N(C(=O)CNCc2ccccc2)c2ccccc2N1Cc1ccccc1` (relative stereo) [compound 138], for which the concentration for half-maximal inhibition (IC50) amounted to 14 µM. With `CN(CC(=O)N1c2ccccc2N(Cc2ccccc2)C(=O)[C@H]2CCC[C@H]21)Cc1ccccc1` (relative stereo) [compound 139] the figure was 11 µM; with `O=C(c1ccccc1)N(CC(=O)N1c2ccccc2N(Cc2ccccc2)C(=O)[C@H]2CCC[C@H]21)Cc1ccccc1` (relative stereo) [compound 141], 14 µM. Regarding `O=C1c2ccccc2C(=O)N1CC(=O)N1c2ccccc2N(Cc2ccccc2)C(=O)[C@H]2CCCC[C@H]21` (relative stereo) [compound 168], the 50% inhibitory concentration (IC50) came to 3 µM.

Turning to `O=C1c2ccccc2C(=O)N1CC(=O)N1c2ccccc2N(Cc2ccc(Cl)cc2)C(=O)[C@H]2CCC[C@H]21` (relative stereo) [compound 169], the IC50 worked out at 2 µM. Turning to `O=C1C2=C(CCCC2)C(=O)N1CC(=O)N1c2ccccc2N(Cc2cccc3ccccc23)C(=O)[C@H]2CCC[C@H]21` (relative stereo) [compound 170], the half-maximal inhibitory concentration (IC50) stood at 0.6 µM. As for `O=C1C2=C(CCCC2)C(=O)N1CC(=O)N1c2ccccc2N(Cc2ccc3ccccc3c2)C(=O)[C@H]2CCC[C@H]21` (relative stereo) [compound 171], the half-maximal inhibitory concentration (IC50) came to 0.3 µM.

Consider `CC1=C(C)C(=O)N(CC(=O)N2c3ccccc3N(Cc3ccccc3)C(=O)[C@H]3CCC[C@H]32)C1=O` (relative stereo) [compound 173], for which the 50% inhibitory concentration (IC50) was 7 µM. Regarding `O=C1C2=C(CCC2)C(=O)N1CC(=O)N1c2ccccc2N(Cc2ccccc2)C(=O)[C@H]2CCC[C@H]21` (relative stereo) [compound 176], the IC50 was found to be 2 µM. Consider `O=C1c2ccccc2C(=O)N1CC(=O)N1c2ccccc2N(Cc2ccc(-c3ccccc3)cc2)C(=O)[C@H]2CCC[C@H]21` (relative stereo) [compound 182], for which the IC50 worked out at 2 µM.

For the compound `O=C1c2ccccc2C(=O)N1CC(=O)N1c2ccccc2N(Cc2ccc3ccccc3n2)C(=O)[C@H]2CCC[C@H]21` (relative stereo) [compound 184], the half-inhibitory concentration (IC50) was found to be 0.8 µM. As for `O=C1c2ccccc2C(=O)N1CC(=O)N1c2ccccc2N(Cc2ccc(F)cc2)C(=O)[C@H]2CCC[C@H]21` (relative stereo) [compound 191], the 50% inhibitory concentration (IC50) was 2 µM.

For the compound `O=C1c2ccccc2C(=O)N1CC(=O)N1c2ccccc2N(Cc2ccccc2F)C(=O)[C@H]2CCC[C@H]21` (relative stereo) [compound 194], the IC50 stood at 3 µM.
